System: NF-κB activation pathway
Experiment: Real-time PCR (TaqMan/SYBR Green) of target gene mRNA in LPS-stimulated THP-1 cells with NF-κB pathway inhibitors
Format: cell-based, human
Settings: BMS-345541 10 μM, dexamethasone 100 nM; for MGC20791 expression (mRNA): all time points examined, FIG. 5D; for BCL-6 expression (mRNA): FIG. 5C
Method: Poly (A)^+ mRNA was isolated from THP-1 cells that were either unstimulated, or stimulated with 100 ng/ml LPS for two hours in the presence and absence of BMS-205820 (2 uM) using the Fast Track isolation kit (Invitrogen, Carlsbad, Calif.) according to manufacturer's instructions. RNA quality and quantity were evaluated using UV spectrometry and capillary electrophoresis with the RNA 6000 Assay 10 (Agilent). First-strand cDNA was synthesized using the SuperScript™ First-Strand Synthesis System for RT-PCR (Invitrogen) according to manufacturer's instructions.
PCR reactions were performed in a total volume of 40 ul containing master mix (SYBR Green I dye, 50 mM Tris-Cl pH 8.3, 75 mM KCl, DMSO, Rox reference dye, 5 mM MgCl2, 2 mM dNTP, 1 unit Platinum Taq High Fidelity enzyme), 0.5 uM 15 each of forward and reverse gene-specific primers, and cDNA (8 ul of a 1:36 dilution of the first strand reaction mix). For tissue expression analyses, PCR reactions included 2 ul of cDNA derived from the Human Multiple Tissue cDNA panel I and Human Immune System MTC Panel (Clontech, Palo Alto, Calif.). The amplification program consisted of a 10 minute incubation at 95° C., followed by 40 cycles of incubations at 95° C. for 15 seconds, 60° C. for 1 minute. The amplification was followed by melting curve analysis at 60° C. to determine the specificity of the amplification reaction. The data were analyzed using the TaqMan 5700 software with the threshold value set to 0.5. The message levels of GAPDH were used to normalize the amounts of cDNA for each reaction.
PolyA+ mRNA was isolated from THP1 cells that were either unstimulated, stimulated with LPS for 2 hours, or stimulated with LPS for 2 hours in the presence of the peptide BMS-205820 (2 μM). In some experiments, THP-1 cells were stimulated with LPS in the presence of the glucocorticoid dexamethasone (100 nM), and the IKK-2 inhibitor, BMS-345541 (10 μM). RNA quality and quantity were evaluated using UV spectrometry and capillary electrophoresis with the RNA 6000 Assay by Agilent. Five-hundred nanograms of polyA RNA was used for first-strand cDNA synthesis using the SuperScript™ First-Strand Synthesis System for RT-PCR (Life Technologies) following the manufacturer's instructions with 250 ng of random hexamers.
PCR Reactions were performed in a total volume of 40 μl. The master mix contained SYBR Green I Dye, 50 mM Tris-HCl pH8.3, 75 mM KCl, DMSO, Rox reference dye, 5 mM MgCl2, 2 mM dNTP, Platinum Taq High Fidelity (1U/reaction), and 0.5 μM of each primer. The cDNA was diluted 1:36 from the synthesis reaction and eight microliters was used in each PCR reaction. For tissue distribution analyses, two microliters of cDNA from the Human Multiple Tissue and Human Immune System MTC cDNA panels were used as templates. The amplification program consisted of a 10 minute incubation at 95° C. followed by forty cycles of incubations at 95° C. for 15 seconds and 60° C. for 1 minute. […] A negative control without cDNA template was run to assess the overall specificity.
A relative value for the initial target concentration in each reaction was determined using the TaqMan 5700 software. The threshold value was set to 0.5 to obtain cycle threshold values that were used to assign relative message levels for each target. The message levels of GAPDH were determined for each cDNA sample and were used to normalize all other genes tested from the same cDNA sample.

[1] = THP-1 cells stimulated with LPS

Structure (SMILES)	MGC20791 expression (mRNA) [1]	BCL-6 expression (mRNA) [1]	Cytokine-Inducible Kinase (CNK) expression (mRNA) (THP-1 cells stimulated with LPS, all time points, FIG. 5A)	BCL-2 Like 11 expression (mRNA) (THP-1 cells stimulated with LPS, each time point, FIG. 5B)	Stat1 expression (mRNA) (THP-1 cells, 8 hours post LPS stimulation, FIG. 5E)
C[C@@H]1C[C@H]2[C@@H]3CCC4=CC(=O)C=C[C@]4(C)[C@@]3(F)[C@@H](O)C[C@]2(C)[C@@]1(O)C(=O)CO [dexamethasone]	failed to inhibit	failed to inhibit			
Cc1ccc2nc(NCCN)c3ncc(C)n3c2c1 [BMS-345541]	significantly inhibited	significantly inhibited	potently inhibited	significantly inhibited expression at each time point below that detected in resting cells	significantly inhibited

Reference: patent publication US20040171823A1, “Polynucleotides and polypeptides associated with the NF-kappaB pathway” (priority 2003, published 2004)
